{"source": "paper PMC12216184", "about": "(Nature Communications, 2025)", "key": {"[1]": {"target": "N-terminal p53 region from amino acids 1 to 94 (p53^1-94) (human) (UniProt P04637)", "sequence (P04637 1-94)": "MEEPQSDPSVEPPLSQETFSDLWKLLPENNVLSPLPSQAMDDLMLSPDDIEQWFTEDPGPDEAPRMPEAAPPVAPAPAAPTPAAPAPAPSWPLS", "experiment": "ITC"}, "[2]": {"target": "p53^TAD2 (residues 37-57), synthetic peptide (human) (UniProt P04637)", "sequence (P04637 37-57)": "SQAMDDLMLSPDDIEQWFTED", "experiment": "ITC"}, "[3]": {"target": "p53^TAD2 phosphorylated at Ser46 (human) (UniProt P04637)", "experiment": "ITC"}, "[4]": {"target": "p53^TAD2 phosphorylated at Ser46 and Thr55 (human) (UniProt P04637)", "experiment": "ITC"}, "[5]": {"target": "p53^TAD2 phosphorylated at Thr55 (human) (UniProt P04637)", "experiment": "ITC"}, "p53^1–94 [6]": {"tested_on": "p53^1–94", "experiment": "1H,15N HSQC NMR titration of 15N-labeled p53^1–94 (CSP)", "type": "binding, human", "conditions": "15N-labeled p53^1–94, NMR titration", "protocol": "(§1) All NMR spectra were recorded at 298 K either on a 700 MHz Bruker Avance III NMR spectrometer equipped with a TCI cryoprobe or on a 600 MHz Bruker Avance Neo NMR spectrometer equipped with a TXI 600S3 probehead at 298 K. All samples were in 50 mM NaH2PO4/Na2HPO4, pH 7.5 and 10 % D2O was added for the lock. Chemical shifts of the recombinant FOXO4-LRI were assigned using the following three-dimensional spectra: HNCACB, CBCA(CO)NH, (HN)N(CA)NNH, HN(NCA)NNH and (H)CC(CO)NH.\n(§2) The CSPs were calculated according to the following equation:1 CSP=δH^2+ΔδN^2/7 where ΔδH and ΔδN indicate the chemical shift changes of the amide proton and nitrogen, respectively, using CcpNMR 2.5[49]."}, "[7]": {"tested_on": "endogenous p53 versus p53^ΔTAD2 in RPE-1 cells", "experiment": "Pull-down of endogenous p53 versus p53^ΔTAD2 from RPE-1 cells", "type": "binding, human", "conditions": "biotinylated bait (26 µM FOXO-FH or 125 µM biotinylated peptide CLO4201) on streptavidin agarose, 1 mg/mL RPE-1 lysate, 4 °C, Western blot, triplicates", "text": "Then, cells were selected by blasticidin for 10 days. Cells, which were expressing 3HA-GFP-miniturbo, p53-3HA-GFP-miniturbo-p53 and p53-Δtad2-3HA-GFP-miniturbo were sorted by FACS using GFP (Supplementary Fig. 17).\np53 mutant human TERT-immortalized retinal pigment epithelial 1 (RPE1) cells (RPE1 TP53^−/−; denoted RPE-1 p53KO) cells were kindly provided by Joanna Loizou (CeMM Research Center for Molecular Medicine of the Austrian Academy of Sciences, Vienna, Austria)[48]. […] For the preparation of cell lysates for pull down experiments, cells were grown to confluence and incubated with 10 µM Etoposide (Sigma) for 24 h. Cells were harvested in ice cold PBS pH 7.4 and lysed in lysis buffer (10 mM Tris pH 7.4, 1% IGEPAL®CA-630, 0.1% SDS, 140 mM NaCl, 2 mM MgCl2) supplemented with protease inhibitor cocktail, Benzonase (Merck Millipore) and RNase (molecular biology, Thermo Fisher). Samples were incubated on ice for 20 min, lysed by sonication and centrifuged for 15 min at 24,104 g and 4 °C. Pellets were discarded. Protein amount of lysates was determined by BCA protein assay. Lysates were then diluted to a protein concentration of 1 mg/mL in ice-cold dilution buffer (10 mM Tris pH 7.4, 1% IGEPAL®CA-630, 0.1% SDS, 140 mM NaCl, 2 mM EDTA) supplemented with protease inhibitor cocktail. […]"}, "p53^1–94 [8]": {"tested_on": "p53^1–94", "experiment": "NMR secondary chemical shifts and relaxation (15N{1H} NOE, R1, R2) of p53^1–94", "type": "binding, human", "conditions": "300 µM p53^1–94 with 400 µM ligand, pH 7.5", "procedure": "Data analysis von R1 and R1ρ measurements were performed using CcpNMR 2.5[49]. As fitting function, the following equation was used2 Mzt=M0^−Rit+C where Mz(t) is the longitudinal relaxation at the recovery delay time t, M0 is the equilibrium magnetization and Ri is either the longitudinal relaxation rate R1 or R1ρ. The transverse relaxation in the rotating frame R1ρ was then converted to R2 as described previously[50],[51] using the formula3 R1ρ=R1cos^2θ+R2sin^2θ in which θ = arctan(1/Ω) is the tilt angle between the static magnetic field and the effective field in the rotating frame."}, "p53^1-94": {"target": "T1, p53^1-94 (Homo sapiens, UniProt P04637)", "T1 construct": "His6-protein A (TEV cleavage site) (cleaved yes); made in house; host or cells: Escherichia coli BL21-DE3 Star", "T1 sequence (P04637 1-94)": "as the sequence (P04637 1-94) above", "experiment": "ITC, p53^1-94", "type": "binding"}, "p53^TAD2": {"target": "T2, p53^TAD2 (Homo sapiens, UniProt P04637)", "T2 construct": "purchased Peptide Specialty Laboratories GmbH", "experiment": "ITC, p53^TAD2", "type": "binding"}, "p53^TAD2pS46": {"target": "T3, p53^TAD2pS46 (Homo sapiens, UniProt P04637)", "T3 construct": "purchased Peptide Specialty Laboratories GmbH", "experiment": "ITC, p53^TAD2pS46", "type": "binding"}, "p53^TAD2pT55": {"target": "T4, p53^TAD2pT55 (Homo sapiens, UniProt P04637)", "T4 construct": "purchased Peptide Specialty Laboratories GmbH", "experiment": "ITC, p53^TAD2pT55", "type": "binding"}, "p53^TAD2pS46T55": {"target": "T5, p53^TAD2pS46T55 (Homo sapiens, UniProt P04637)", "T5 construct": "purchased Peptide Specialty Laboratories GmbH", "experiment": "ITC, p53^TAD2pS46T55", "type": "binding"}, "FOXO4^CR3": {"tested_on": "FOXO4^CR3", "experiment": "1H,15N HSQC NMR titration of 15N-labeled FOXO4^CR3 (CSP)", "type": "binding, human", "conditions": "15N-labeled FOXO4^CR3, NMR titration with p53^DBD", "protocol": "as §1, §2"}, "FOXO4^FH": {"tested_on": "FOXO4^FH", "experiment": "1H,15N HSQC NMR titration of 15N-labeled FOXO4^FH (CSP)", "type": "binding, human", "conditions": "one equivalent of phosphopeptide versus p53^TAD2, 15N-labeled FOXO4^FH", "protocol": "as §1, §2"}}, "note": "Non-standard residues stand in square brackets, D forms with d. No end group written: not given here."}
{"substance": "FOXO4-DRI (D-retro-inverso cell-penetrating peptide derived from the FOXO4 FH domain, fused to HIV-TAT)", "values": [{"measurement": "dH", "setting": "[1]", "value": 5.9, "unit": "kcal/mol"}, {"measurement": "stoichiometry N", "setting": "[1]", "value": 0.9}, {"measurement": "dH", "setting": "[2]", "value": 0.2, "unit": "kcal/mol"}, {"measurement": "stoichiometry N", "setting": "[2]", "value": 0.9}, {"measurement": "dH", "setting": "[3]", "value": -1.8, "unit": "kcal/mol"}, {"measurement": "stoichiometry N", "setting": "[3]", "value": 0.71}, {"measurement": "dH", "setting": "[4]", "value": -4.5, "unit": "kcal/mol"}, {"measurement": "stoichiometry N", "setting": "[4]", "value": 1.11}, {"measurement": "dH", "setting": "[5]", "value": -4.7, "unit": "kcal/mol"}, {"measurement": "stoichiometry N", "setting": "[5]", "value": 0.74}]}
{"substance": "FOXO4^FH: FOXO4 forkhead domain fragment, amino acids 86–208", "values": [{"measurement": "most affected residues of p53 (CSP)", "setting": "p53^1–94 [6]", "value": "region from amino acids 45 to 57"}, {"measurement": "pull-down of endogenous p53 versus p53^ΔTAD2", "setting": "[7]", "value": "higher amounts of endogenous p53 versus p53^ΔTAD2"}, {"measurement": "15N{1H} NOE change", "setting": "p53^1–94 [8]", "value": "increased substantially in the presence of FOXO4^FH"}, {"measurement": "R1 relaxation rate change", "setting": "p53^1–94 [8]", "value": "highly similar"}]}
{"substance": "[dL][dT][dL][dR][dK][dE][dP][dA][dS][dE][dI][dA][dQ][dS][dI][dL][dE][dA][dY][dS][dQ][dN]G[dW][dA][dN][dR][dR][dS]GG[dK][dR][dP][dP][dP][dR][dR][dR][dQ][dR][dR][dK][dK][dR]G [FOXO4-DRI]", "values": [{"measurement": "Kd", "setting": "p53^1-94", "value": "0.4 ± 0.3", "unit": "µM"}, {"measurement": "Kd", "setting": "p53^TAD2", "value": "18.5 ± 3.6", "unit": "µM"}, {"measurement": "Kd", "setting": "p53^TAD2pS46", "value": "10.5 ± 1.5", "unit": "µM"}, {"measurement": "Kd", "setting": "p53^TAD2pT55", "value": "5.8 ± 1.2", "unit": "µM"}, {"measurement": "Kd", "setting": "p53^TAD2pS46T55", "value": "4.9 ± 0.3", "unit": "µM"}]}
{"substance": "p53^DBD: human p53 DNA-binding domain fragment, amino acids 94–312", "values": [{"measurement": "most affected residues of FOXO4^CR3 (CSP)", "setting": "FOXO4^CR3", "value": "between FOXO4 amino acids 473 and 491"}]}
{"substance": "p53^TAD2pS46: p53^TAD2 peptide phosphorylated at Ser46", "values": [{"measurement": "effect of phosphorylation on CSPs of FOXO4^FH", "setting": "FOXO4^FH", "value": "stronger CSPs"}]}
{"substance": "p53^TAD2pT55: p53^TAD2 peptide phosphorylated at Thr55", "values": [{"measurement": "effect of phosphorylation on CSPs of FOXO4^FH", "setting": "FOXO4^FH", "value": "stronger CSPs"}]}
